This assay relates to test plant species. In words: Post-emergent herbicidal activity test (greenhouse, foliar spray, visual growth reduction). The format is in vivo. Particulars: post-emergence, 336 h, 140 g ai/ha. An outline of the steps:
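Visual scoring 14 d after treatment (0 = no injury, 100 = complete control) against nontreated and solvent-blank plants gave percent growth reduction. Foliar application used a track sprayer delivering 187 L/ha to seedlings at first or second true leaf stage, grown at 23–29 °C day, ~15 h photoperiod.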

[1] abbreviates: ECHCG: barnyardgrass (Echinochloa crus-galli), 14 days after application, read-out: Visual Growth Reduction (%) 14 Days After Application, ECHCG.
Where [2] appears, read: IPOHE: ivy-leaf morning glory (Ipomoea hederacea), 14 days after application, read-out: Visual Growth Reduction (%) 14 Days After Application, IPOHE.
The mark [3] stands for this setting: KCHSC: kochia (Bassia scoparia), 14 days after application, read-out: Visual Growth Reduction (%) 14 Days After Application, KCHSC.
Setting [4] is: ORYSA: rice (Oryza sativa), 14 days after application, read-out: Visual Growth Reduction (%) 14 Days After Application, ORYSA.
Setting [5] is: SETFA: giant foxtail (Setaria faberi), 14 days after application, read-out: Visual Growth Reduction (%) 14 Days After Application, SETFA.
[6] abbreviates: SORVU: grain sorghum (Sorghum vulgare), 14 days after application, read-out: Visual Growth Reduction (%) 14 Days After Application, SORVU.
The mark [7] stands for this setting: STEME: common chickweed (Stellaria media), 14 days after application, read-out: Visual Growth Reduction (%) 14 Days After Application, STEME.
[8] abbreviates: TRZAS: wheat, spring (Triticum aestivum), 14 days after application, read-out: Visual Growth Reduction (%) 14 Days After Application, TRZAS.
The mark [9] stands for this setting: blackgrass (Alopecurus myosuroides), 14 Days After Application, read-out: Visual Growth Reduction (%) ALOMY.
Setting [10] is: canada thistle (Cirsium arvense), 14 Days After Application, read-out: Visual Growth Reduction (%) CIRAR.
Where [11] appears, read: crabgrass (Digitaria sanguinalis), 14 Days After Application, read-out: Visual Growth Reduction (%) DIGSA.
Where [12] appears, read: lambsquarters (Chenopodium album), 14 Days After Application, read-out: Visual Growth Reduction (%) CHEAL.
Where [13] appears, read: redroot pigweed (Amaranthus retroflexus), 14 Days After Application, read-out: Visual Growth Reduction (%) AMARE.
Where [14] appears, read: wild oat (Avena fatua), 14 Days After Application, read-out: Visual Growth Reduction (%) AVEFA.
Where [15] appears, read: yellow nutsedge (Cyperus esculentus), 14 Days After Application, read-out: Visual Growth Reduction (%) CYPES.

Where two headings read alike, the source gives them in different places.

With `COC(=O)c1nc(-c2ccc(OC(F)F)cc2Cl)c(F)cc1Cl` [F200, Methyl 3-chloro-6-(2-chloro-4-(difluoromethoxy)phenyl)-5-fluoropicolinate], the pest or weed control at 140 g/ha runs as follows: under setting [1], 75 to 84%; under setting [2], 95 to 100%; under setting [3], 95 to 100%; under setting [4], 0 to 29%; under setting [5], 85 to 94%; under setting [6], 95 to 100%. Besides, the pest or weed control at 140 g/ha reads like this: under setting [7], 30 to 44%; under setting [8], 75 to 84%; under setting [9], 45 to 59%; under setting [10], 95 to 100%; under setting [11], 95 to 100%; under setting [12], 95 to 100%. Moreover, the pest or weed control at 140 g/ha is, setting by setting: under setting [13], 95 to 100%; under setting [14], 60 to 74%; under setting [15], 0 to 29%.

In the case of `COC(=O)c1nc(-c2ccc(C(F)(F)F)cc2Cl)ccc1[N+](=O)[O-]` [F201, Methyl 6-(2-chloro-4-(trifluoromethyl)phenyl)-3-nitropicolinate], the pest or weed control at 140 g/ha is, setting by setting: under setting [1], 0 to 29%; under setting [2], 0 to 29%; under setting [3], 0 to 29%; under setting [4], 0 to 29%; under setting [5], 0 to 29%; under setting [6], 0 to 29%. Besides, the pest or weed control at 140 g/ha under setting [7] fell in the range of 0 to 29%; the pest or weed control at 140 g/ha under setting [8] was 0 to 29%; the pest or weed control at 140 g/ha under setting [9] lay in the range of 0 to 29%; the pest or weed control at 140 g/ha under setting [10] is 0 to 29%; the pest or weed control at 140 g/ha under setting [11] was 0 to 29%; the pest or weed control at 140 g/ha under setting [12] fell in the range of 0 to 29%. Besides, the pest or weed control at 140 g/ha is, setting by setting: under setting [13], 45 to 59%; under setting [14], 0 to 29%; under setting [15], 0 to 29%.

Turning to `COC(=O)c1nc(-c2ccc3c(c2)C(F)(F)OC(F)(F)O3)c(Cl)cc1Cl` [F202, Methyl 3,5-dichloro-6-(2,2,4,4-tetrafluoro-4H-benzo[d][1,3]dioxin-6-yl)picolinate], the pest or weed control at 140 g/ha lay within 0 to 29% under setting [1]; 0 to 29% under setting [2]; 0 to 29% under setting [3]; 0 to 29% under setting [4]; 0 to 29% under setting [5]; 0 to 29% under setting [6]. Further, the pest or weed control at 140 g/ha runs as follows: under setting [7], 0 to 29%; under setting [8], 0 to 29%; under setting [9], 0 to 29%; under setting [10], 0 to 29%; under setting [11], 0 to 29%; under setting [12], 0 to 29%. The pest or weed control at 140 g/ha under setting [13] is 0 to 29%, the pest or weed control at 140 g/ha under setting [14] was in the range of 0 to 29% and the pest or weed control at 140 g/ha under setting [15] fell in the range of 0 to 29%.

On to `COC(=O)c1nc(-c2ccc3c(c2)C(F)(F)OC(F)(F)O3)ccc1Cl` [F203, Methyl 3-chloro-6-(2,2,4,4-tetrafluoro-4H-benzo[d][1,3]dioxin-6-yl) picolinate], for which the pest or weed control at 140 g/ha runs as follows: under setting [1], 0 to 29%; under setting [2], 30 to 44%; under setting [3], 0 to 29%; under setting [4], 0 to 29%; under setting [5], 0 to 29%; under setting [6], 0 to 29%. Moreover, the pest or weed control at 140 g/ha under setting [7] was 0 to 29%; the pest or weed control at 140 g/ha under setting [8] lay within 0 to 29%; the pest or weed control at 140 g/ha under setting [9] fell in the range of 0 to 29%; the pest or weed control at 140 g/ha under setting [10] is 0 to 29%; the pest or weed control at 140 g/ha under setting [11] is 0 to 29%; the pest or weed control at 140 g/ha under setting [12] is 0 to 29%. In addition, the pest or weed control at 140 g/ha was 0 to 29% under setting [13], 0 to 29% under setting [14] and 0 to 29% under setting [15].

Consider `COC(=O)c1nc(-c2ccc3c(c2)C(F)(F)OC(F)(F)O3)c(F)cc1Cl` [F204, Methyl 3-chloro-5-fluoro-6-(2,2,4,4-tetrafluoro-4H-benzo[d][1,3]dioxin-6-yl)picolinate], for which the pest or weed control at 140 g/ha under setting [1] is 0 to 29%; the pest or weed control at 140 g/ha under setting [2] was 30 to 44%; the pest or weed control at 140 g/ha under setting [3] was 0 to 29%; the pest or weed control at 140 g/ha under setting [4] is 0 to 29%; the pest or weed control at 140 g/ha under setting [5] lay within 0 to 29%; the pest or weed control at 140 g/ha under setting [6] was in the range of 0 to 29%. Besides, the pest or weed control at 140 g/ha is, setting by setting: under setting [7], 0 to 29%; under setting [8], 0 to 29%; under setting [9], 0 to 29%; under setting [10], 0 to 29%; under setting [11], 0 to 29%; under setting [12], 0 to 29%. Besides, the pest or weed control at 140 g/ha under setting [13] was in the range of 0 to 29%, the pest or weed control at 140 g/ha under setting [14] fell in the range of 0 to 29% and the pest or weed control at 140 g/ha under setting [15] fell in the range of 0 to 29%.

As to `O=C(O)c1nc(-c2cnc(C(F)(F)F)cc2Cl)ccc1Cl` [F205, 4′,5-Dichloro-6′-(trifluoromethyl)-[2,3′-bipyridine]-6-carboxylic acid], the pest or weed control at 140 g/ha under setting [1] fell in the range of 45 to 59%; the pest or weed control at 140 g/ha under setting [2] is 95 to 100%; the pest or weed control at 140 g/ha under setting [3] lay within 0 to 29%; the pest or weed control at 140 g/ha under setting [4] was in the range of 0 to 29%; the pest or weed control at 140 g/ha under setting [5] is 75 to 84%; the pest or weed control at 140 g/ha under setting [6] is 75 to 84%. Further, the pest or weed control at 140 g/ha under setting [7] was 0 to 29%; the pest or weed control at 140 g/ha under setting [8] is 0 to 29%; the pest or weed control at 140 g/ha under setting [9] fell in the range of 0 to 29%; the pest or weed control at 140 g/ha under setting [10] lay in the range of 75 to 84%; the pest or weed control at 140 g/ha under setting [11] lay in the range of 45 to 59%; the pest or weed control at 140 g/ha under setting [12] fell in the range of 75 to 84%. In addition, the pest or weed control at 140 g/ha fell in the range of 30 to 44% under setting [13], 0 to 29% under setting [14] and 0 to 29% under setting [15].

For `COC(=O)c1nc(-c2c(Cl)cc(C(F)(F)F)cc2[N+](=O)[O-])ccc1Cl` [F206, Methyl 3-chloro-6-(2-chloro-6-nitro-4-(trifluoromethyl)phenyl)picolinate], the pest or weed control at 140 g/ha by setting is: under setting [1], 0 to 29%; under setting [2], 95 to 100%; under setting [3], 30 to 44%; under setting [4], 75 to 84%; under setting [5], 75 to 84%; under setting [6], 75 to 84%. For the same compound, the pest or weed control at 140 g/ha under setting [7] was in the range of 0 to 29%; the pest or weed control at 140 g/ha under setting [8] was 0 to 29%; the pest or weed control at 140 g/ha under setting [9] fell in the range of 0 to 29%; the pest or weed control at 140 g/ha under setting [10] is 30 to 44%; the pest or weed control at 140 g/ha under setting [11] lay within 45 to 59%; the pest or weed control at 140 g/ha under setting [12] lay within 30 to 44%. Moreover, the pest or weed control at 140 g/ha reads like this: under setting [13], 45 to 59%; under setting [14], 0 to 29%; under setting [15], 0 to 29%.

These data come from patent publication US20230017045A1, “PYRIDINE AND PYRIMIDINE CARBOXYLATE HERBICIDES AND METHODS OF USE THEREOF” (Dow AgroSciences LLC, priority 2017, published 2023).
